Laboratory results as given in patent US12410228B2, “Insulin analogs” (UNIVERSITY OF UTAH RESEARCH FOUNDATION, priority 2016, dated 2025).
pEC50, pIC50: −log10 of the molar value.

Experiments:
[1] = molecular target: T1, human IR-B (Homo sapiens, UniProt P06213); assay: cell-based
T1 construct: expressed in transfected cells; host or cells: NIH 3T3 mouse fibroblasts overexpressing human IR-B (puromycin selection)

[2] = test system: fish; assay: Effect on fish (injection or presence in the water); type: in vivo
[3] = molecular target: T2, human IR (isoform B) (Homo sapiens, UniProt P06213); assay: biochemical; type: binding
T2 construct: expressed in transfected cells; host or cells: R- IR-B cells, lysed with Triton X-100 and captured with anti-IR antibody 83-7; This comes from the general description of the Denley et al. 2004 format

[4] = molecular target: hIR (Homo sapiens, UniProt P06213); assay: hIR activation / insulin signalling activation by DOI analogues and venom insulins (Example 11, FIGS. 22-27); type: cell-based
[5] = relative to insulin; Bao et al. 1997; cited from earlier work

Molecule: CC[C@H](C)[C@@H]1NC(=O)[C@H](CC(C(=O)O)C(=O)O)NC(=O)[C@H](CO)NC(=O)CNC(=O)[C@@H](NC(=O)[C@H](CCCNC(=N)N)NC(=O)[C@H](Cc2c[nH]cn2)NC(=O)[C@H](CCCCN)NC(=O)[C@@H]2C[C@@H](O)CN2C(=O)[C@@H](NC(=O)[C@H](CC(=O)O)NC(=O)[C@H](Cc2ccccc2)NC(=O)[C@@H](N)[C@@H](C)O)[C@@H](C)O)CSSC[C@@H]2NC(=O)[C@@H](NC(=O)[C@H](Cc3c[nH]cn3)NC(=O)[C@H](CC(C(=O)O)C(=O)O)NC(=O)[C@@H](NC(=O)[C@@H](NC(=O)CN)C(C)C)C(C)C)C[Se][Se]C[C@H](NC(=O)[C@@H]3CCCN3C(=O)[C@H](CCCNC(=N)N)NC(=O)[C@H](Cc3c[nH]cn3)NC2=O)C(=O)N[C@@H](CO)C(=O)N[C@@H](CC(N)=O)C(=O)N[C@@H](C)C(=O)N[C@@H](CCC(=O)O)C(=O)N[C@@H](Cc2ccccc2)C(=O)N[C@@H](CCCCN)C(=O)N[C@@H](CCCCN)C(=O)N[C@@H](Cc2ccc(O)cc2)C(=O)N[C@H](C(N)=O)CSSC[C@@H](C(=O)N[C@@H](Cc2ccc(O)cc2)C(=O)N[C@@H](CCCNC(=N)N)C(=O)O)NC(=O)[C@H](CC(C)C)NC(=O)[C@H](CC(=O)O)NC(=O)[C@H](CCSC)NC(=O)[C@H](Cc2ccc(O)cc2)NC(=O)[C@H](CO)NC(=O)[C@H](CC(N)=O)NC(=O)[C@H]([C@@H](C)O)NC1=O [sCon-Ins G1]
- pEC50 [1]: 8.10
- efficiency of inducing Akt phosphorylation relative to PTM-free analogue [1]: eight-fold greater efficiency
- hypoglycemic effect in fish ([2]; injected into fish): induces hypoglycemic shock
- effect on fish motility ([2]; present in the water): slows fish motility
- pIC50 [3]: 7.76
- activity / affinity at human IR relative to human insulin (fold less) [3]: thirty-fold less active
- activity against the human IR-B relative to PTM-free analogue [3]: four times more active

Molecule: hIns[TyrB15, TyrB20, DOI]: des-octapeptide human insulin with Tyr at B15 and B20
- activity in Akt phosphorylation assay relative to hIns[DOI] [1]: ca five-fold more active

Molecule: quadruple DOI mutant: DOI analogue with A8 His, A9 Arg, B10 Glu and B20 Tyr; A chain SEQ ID NO: 39, B chain SEQ ID NO: 30
- potency in hIR activation, comparison in words [4]: comparable to that of human insulin

Molecule: DOI: monomeric analogue lacking residues 23 to 30 of the B chain of human insulin [reference compound]
- potency in hIR activation, comparison in words [4]: same
- potency relative to human insulin (fold weaker) ([4]; relative to human insulin): 1,000 fold
- bioactivity preserved [5]: less than 0.1%
